Data taken from paper PMC10401645 (ACS Chemical Neuroscience, 2023).
Like-named read-outs stand apart in the source and are kept apart here.

Key:
5-HT2A [1] = target: T1, 5-HT2A (Homo sapiens, UniProt P28223); test: NanoBiT βarr2 recruitment assay at 5-HT2A; settings: 2 h AUC; for EC50: β-arrestin2 EC50 (nM) (95% CI)
Target sequence in this assay (P28223 whole entry): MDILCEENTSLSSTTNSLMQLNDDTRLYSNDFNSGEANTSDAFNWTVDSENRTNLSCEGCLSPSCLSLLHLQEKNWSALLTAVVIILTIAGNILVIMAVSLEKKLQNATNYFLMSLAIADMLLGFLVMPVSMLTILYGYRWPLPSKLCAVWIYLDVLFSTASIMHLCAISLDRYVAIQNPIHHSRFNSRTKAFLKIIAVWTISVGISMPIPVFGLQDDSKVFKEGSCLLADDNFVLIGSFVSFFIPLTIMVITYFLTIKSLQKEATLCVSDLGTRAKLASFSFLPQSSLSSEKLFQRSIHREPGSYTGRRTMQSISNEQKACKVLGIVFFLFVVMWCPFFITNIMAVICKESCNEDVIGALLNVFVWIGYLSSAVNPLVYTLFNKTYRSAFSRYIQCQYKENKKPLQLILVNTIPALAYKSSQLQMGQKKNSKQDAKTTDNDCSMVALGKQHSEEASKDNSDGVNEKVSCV
Target sequence in this assay (P32121 whole entry partner): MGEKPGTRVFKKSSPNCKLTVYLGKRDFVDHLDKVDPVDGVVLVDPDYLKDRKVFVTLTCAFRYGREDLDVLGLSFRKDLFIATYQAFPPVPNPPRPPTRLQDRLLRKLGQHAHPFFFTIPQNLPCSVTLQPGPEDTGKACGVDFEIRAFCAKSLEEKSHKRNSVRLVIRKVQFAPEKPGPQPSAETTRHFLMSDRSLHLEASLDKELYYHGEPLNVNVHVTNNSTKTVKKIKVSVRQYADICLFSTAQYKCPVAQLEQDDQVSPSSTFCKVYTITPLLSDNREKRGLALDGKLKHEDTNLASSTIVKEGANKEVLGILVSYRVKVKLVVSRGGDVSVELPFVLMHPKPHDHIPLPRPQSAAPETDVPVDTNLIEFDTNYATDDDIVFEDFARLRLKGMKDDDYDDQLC

5-HT2A receptor = test: Bias factor; settings: LSD as reference agonist, 2 h AUC; positive = βarr2 preference
5-HT2A [2] = target: T1, 5-HT2A; test: NanoBiT miniGαq recruitment assay at 5-HT2A; settings: 2 h AUC; for EC50: LSD as reference agonist
Target sequence in this assay (P28223 whole entry): as the sequence (P28223 whole entry) above

5-HT2A [3] = target: T1, 5-HT2A; settings: PI hydrolysis assay; cited from earlier work
Target sequence in this assay (P28223 whole entry, species assumed): as the sequence (P28223 whole entry) above
Target sequence in this assay (P32121 whole entry partner, species assumed): as the sequence (P32121 whole entry partner) above

SMILES	EC50 (5-HT2A [1]; LSD as reference agonist) [nM]	β (bias factor) (5-HT2A receptor)	EC50 (5-HT2A [2]; miniGαq EC50 (nM) (95% CI))	EC50 (5-HT2A [2]; miniGαq pEC50 (95% CI)) [nM]	β-arrestin2 EC50 (nM) (95% CI) (5-HT2A [1]; LSD as reference agonist)	EC50 (5-HT2A [3])	β-arrestin2 Emax (%) (95% CI) (5-HT2A [1]; normalized to Emax of LSD)	miniGαq Emax (%) (95% CI) (5-HT2A [2]; normalized to Emax of LSD)
CCOCc1cc(OC)c(CCN)cc1OC.Cl [1d, 2-(4-(Ethoxymethyl)-2,5-dimethoxyphenyl)ethan-1-amine Hydrochloride]	26.4	0.323	75	–	–	–	–	–
COc1cc(CCN)c(OC)cc1C#N.Cl [2C-CN (1j), 4-(2-Aminoethyl)-2,5-dimethoxybenzonitrile Hydrochloride]	174	0.412	503	–	–	–	–	–
COc1cc(CCN)c(OC)cc1C.Cl [2C-D (1b), 2-(2,5-Dimethoxy-4-methylphenyl)ethan-1-amine Hydrochloride]	16.4	0.372	59.4	–	–	–	–	–
COc1cc([N+](=O)[O-])c(OC)cc1CCN.Cl [2C-N (1g), 2-(2,5-Dimethoxy-4-nitrophenyl)ethan-1-amine Hydrochloride]	32.2	0.305	92.5	–	–	–	–	–
CCCc1cc(OC)c(CCN)cc1OC.Cl [2C-P (1c), 2-(2,5-Dimethoxy-4-propylphenyl)ethan-1-amine Hydrochloride]	10.2	0.313	37.6	37.2	–	–	–	–
COc1cc(SC)c(OC)cc1CCN.Cl [2C-T (1e), 2-(2,5-Dimethoxy-4-(methylthio)phenyl)ethan-1-amine Hydrochloride]	13.1	0.343	37.1	–	–	–	–	–
CCCSc1cc(OC)c(CCN)cc1OC.Cl [2C-T-7 (1f), 2-(2,5-Dimethoxy-4-(propylthio)phenyl)ethan-1-amine Hydrochloride]	4.99	0.291	14.3	14.1	–	–	–	–
NCCc1c[nH]c2ccc(O)cc12 [5-HT, 5-hydroxytryptamine, reference compound]	–	0.680	–	–	–	–	–	–
COc1cc([N+](=O)[O-])c(OC)cc1CCNCc1ccccc1F.Cl [25N-NBF (2g), 2-(2,5-Dimethoxy-4-nitrophenyl)-N-(2-fluorobenzyl)ethan-1-amine Hydrochloride]	14.2	0.858	74.7	–	–	–	–	–
COc1cc([N+](=O)[O-])c(OC)cc1CCNCc1cccc2c1OCO2.Cl [25N-NBMD (2h), N-(Benzo[d][1,3]dioxol-4-ylmethyl)-2-(2,5-dimethoxy-4-nitrophenyl)ethan-1-amine Hydrochloride]	2	0.791	9.32	–	–	–	–	–
COc1cc([N+](=O)[O-])c(OC)cc1CCNCc1ccccc1O.Cl [25N-NBOH (2e), 2-(((2,5-Dimethoxy-4-nitrophenethyl)amino)methyl)phenol Hydrochloride]	0.662	0.454	1.73	–	sub-nanomolar	–	–	–
COc1cc([N+](=O)[O-])c(OC)cc1CCNCc1ccccc1OC.Cl [25N-NBOMe (2f), 2-(2,5-Dimethoxy-4-nitrophenyl)-N-(2-methoxybenzyl)ethan-1-amine Hydrochloride]	1.09	0.374	2.53	–	–	sub-nanomolar	–	–
CCCSc1cc(OC)c(CCNCc2ccccc2O)cc1OC.Cl [25T7-NBOH (2c), 2-(((2,5-Dimethoxy-4-(propylthio)phenethyl)amino)methyl)phenol Hydrochloride]	13.9	0.209	17.5	–	–	–	–	–
CCCSc1cc(OC)c(CCNCc2ccccc2OC)cc1OC.Cl [25T7-NBOMe (2d), 2-(2,5-Dimethoxy-4-(propylthio)phenyl)-N-(2-methoxybenzyl)ethan-1-amine Hydrochloride]	7.42	0.281	11.3	–	–	–	–	–
COc1cc(SC)c(OC)cc1CCNCc1ccccc1O.Cl [25T-NBOH (2a), 2-(((2,5-Dimethoxy-4-(methylthio)phenethyl)amino)methyl)phenol Hydrochloride]	1.94	0.447	4.45	–	–	–	–	–
COc1cc(SC)c(OC)cc1CCNCc1ccccc1OC.Cl [25T-NBOMe (2b), 2-(2,5-Dimethoxy-4-(methylthio)phenyl)-N-(2-methoxybenzyl)ethan-1-amine Hydrochloride]	2.05	0.332	4.22	–	–	–	–	–
COc1cc(SC)c(OC)cc1CC(C)N.Cl (centres unmarked) [DOT (1h), 1-(2,5-Dimethoxy-4-(methylthio)phenyl)propan-2-amine Hydrochloride]	14.5	0.436	65.8	–	–	–	–	–
CCCSc1cc(OC)c(CC(C)N)cc1OC.Cl (centres unmarked) [DOT-7 (1i), 1-(2,5-Dimethoxy-4-(propylthio)phenyl)propan-2-amine Hydrochloride]	2.18	0.305	7.63	–	–	–	–	–
CCN(CC)C(=O)[C@@H]1C=C2c3cccc4[nH]cc(c34)C[C@H]2N(C)C1 [LSD, lysergic acid diethylamide, reference compound]	–	0	–	–	–	–	99.4 (92.5–106) %	98.4 (90.4–107) %
